From ChEMBL document CHEMBL1201862, “PubChem BioAssay data set” (2004)
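These data come from cells grown in 96-well plates and exposed to compound for 48 hours at five concentrations. GI50 marks 50% less growth.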 Calls of active or inactive are those of the source. Cut-off read from the data, not from the text of the source: active = GI50 up to about 1.1 µM and inactive = higher.

Key:
Test in all cases: NCI-60 cell line screen, 48 h
XF498 = system: XF498
HL-60 = system: HL-60
SF-268 = system: SF-268
HOP-62 = system: HOP-62
UACC-62 = system: UACC-62
DMS-273 = system: DMS-273
SK-MEL-2 = system: SK-MEL-2
HOP-18 = system: HOP-18
LXFL 529 = system: LXFL 529
ACHN = system: ACHN
SN12C = system: SN12C
HOP-92 = system: HOP-92
SNB-75 = system: SNB-75
SK-MEL-28 = system: SK-MEL-28
KM12 = system: KM12
Malme-3M = system: Malme-3M
SR = system: SR
HCT-116 = system: HCT-116
DMS-114 = system: DMS-114
LOX IMVI = system: LOX IMVI
NCI-H460 = system: NCI-H460
RXF 393 = system: RXF 393
786-0 = system: 786-0
OVCAR-4 = system: OVCAR-4
U-251 = system: U-251
CAKI-1 = system: CAKI-1
HT-29 = system: HT-29
TK-10 = system: TK-10
EKVX = system: EKVX
OVCAR-8 = system: OVCAR-8
COLO 205 = system: COLO 205
HCT-15 = system: HCT-15
UACC-257 = system: UACC-257
NCI-H226 = system: NCI-H226
OVCAR-5 = system: OVCAR-5
SK-MEL-5 = system: SK-MEL-5
HCC 2998 = system: HCC 2998
NCI-H23 = system: NCI-H23
SNB-78 = system: SNB-78
CCRF-CEM = system: CCRF-CEM
KM-20L2 = system: KM-20L2
K562 = system: K562
OVCAR-3 = system: OVCAR-3
A498 = system: A498
UO-31 = system: UO-31
NCI-H522 = system: NCI-H522
DLD-1 = system: DLD-1
M19-MEL = system: M19-MEL
SW-620 = system: SW-620
A549 = system: A549
MOLT-4 = system: MOLT-4
SK-OV-3 = system: SK-OV-3
SF-539 = system: SF-539
SNB-19 = system: SNB-19
RPMI-8226 = system: RPMI-8226
SF-295 = system: SF-295
M14 = system: M14
IGROV-1 = system: IGROV-1

## C(=C\c1ccc2ccccc2c1Nc1ccccc1)/c1ccccc1
XF498
  GI50: 18.4 µM (inactive)
HL-60
  GI50: > 100 µM (inactive)
SF-268
  GI50: 36.2 µM (inactive)
HOP-62
  GI50: 20.1 µM (inactive)
UACC-62
  GI50: 51.9 µM (inactive)
DMS-273
  GI50: 32.7 µM (inactive)
SK-MEL-2
  GI50: > 60.5 µM (inactive)
HOP-18
  GI50: 26.4 µM (inactive)
LXFL 529
  GI50: > 73.1 µM (inactive)
ACHN
  GI50: 20.6 µM (inactive)
SN12C
  GI50: 33.6 µM (inactive)
HOP-92
  GI50: 18.2 µM (inactive)
SNB-75
  GI50: 15.7 µM (inactive)
SK-MEL-28
  GI50: 46 µM (inactive)
KM12
  GI50: 51.3 µM (inactive)
Malme-3M
  GI50: 33.2 µM (inactive)
SR
  GI50: 15.2 µM (inactive)
HCT-116
  GI50: 17.8 µM (inactive)
DMS-114
  GI50: 38.8 µM (inactive)
LOX IMVI
  GI50: > 66.4 µM (inactive)
NCI-H460
  GI50: 27.9 µM (inactive)
RXF 393
  GI50: 8.22 µM (inactive)
786-0
  GI50: 17 µM (inactive)
OVCAR-4
  GI50: 8.15 µM (inactive)
U-251
  GI50: 25.9 µM (inactive)
CAKI-1
  GI50: 23.2 µM (inactive)
HT-29
  GI50: 29.6 µM (inactive)
TK-10
  GI50: 44.5 µM (inactive)
EKVX
  GI50: > 100 µM (inactive)
OVCAR-8
  GI50: 22 µM (inactive)
COLO 205
  GI50: > 71.3 µM (inactive)
HCT-15
  GI50: > 100 µM
UACC-257
  GI50: > 75 µM (inactive)
NCI-H226
  GI50: 33.2 µM (inactive)
OVCAR-5
  GI50: > 100 µM (inactive)
SK-MEL-5
  GI50: 78.3 µM (inactive)
HCC 2998
  GI50: > 70.5 µM (inactive)
NCI-H23
  GI50: 19.9 µM (inactive)
SNB-78
  GI50: 38.6 µM (inactive)
CCRF-CEM
  GI50: 11.9 µM (inactive)
KM-20L2
  GI50: 45.1 µM (inactive)
K562
  GI50: 11.9 µM (inactive)
OVCAR-3
  GI50: 22.4 µM (inactive)
A498
  GI50: 18.3 µM (inactive)
UO-31
  GI50: 29.8 µM (inactive)
NCI-H522
  GI50: 41.6 µM (inactive)
DLD-1
  GI50: 17.3 µM (inactive)
M19-MEL
  GI50: > 92.7 µM (inactive)
SW-620
  GI50: 60.3 µM (inactive)
A549
  GI50: 49.3 µM (inactive)
MOLT-4
  GI50: 15.2 µM (inactive)
SK-OV-3
  GI50: 29.8 µM (inactive)
SF-539
  GI50: 32.2 µM (inactive)
SNB-19
  GI50: 28 µM (inactive)
RPMI-8226
  GI50: 25.1 µM (inactive)
SF-295
  GI50: 41.9 µM (inactive)
M14
  GI50: 18.7 µM (inactive)
IGROV-1
  GI50: 31 µM (inactive)
